Results published in the supplement of paper PMC10307832.

Experiments:
Experiment in all cases: relative viability (nuclei count vs DMSO), 5 days (fraction); higher = more cells survive
[1] = test system: NCI-H3122
How it was run: (§1)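 Lung cancer cell lines in 1536-well plates were dosed by pin tool the day after seeding, either with one drug alone or with a fixed anchor-drug dose plus five library-drug doses (not always all listed) in √10 steps. After 5 days, cells were fixed and their nuclei stained in one step (final 0.05% Triton X-100, 1% formaldehyde, 1 ug/ml Hoechst), then counted on 4× images. Relative viability is the nuclei count in treated wells divided by that in vehicle wells. Values are medians of duplicate plates.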

[2] = test system: PC-14
How it was run: as §1

[3] = test system: NCI-H1355
How it was run: as §1

[4] = test system: NCI-H441
How it was run: as §1

[5] = test system: NCI-H520
How it was run: as §1

[6] = test system: NCI-H727
How it was run: as §1

[7] = test system: NCI-H322M
How it was run: as §1

[8] = test system: NCI-H596
How it was run: as §1

[9] = test system: NCI-H1792
How it was run: as §1

[10] = test system: NCI-H661
How it was run: as §1

[11] = test system: NCI-H1755
How it was run: as §1

[12] = test system: NCI-H1915
How it was run: as §1

[13] = test system: SK-MES-1
How it was run: as §1

[14] = test system: LCLC-103H
How it was run: as §1

[15] = test system: NCI-H2347
How it was run: as §1

[16] = test system: NCI-H1651
How it was run: as §1

[17] = test system: LXF-289
How it was run: as §1

[18] = test system: NCI-H460
How it was run: as §1

[19] = test system: RERF-LC-KJ
How it was run: as §1

[20] = test system: NCI-H1563
How it was run: as §1

In the case of `O=c1cc(-c2cccc3c2Sc2ccccc2S3)oc(N2CCOCC2)c1` + CS(=O)(=O)N1CCN(Cc2cc3nc(-c4cccc5[nH]ncc45)nc(N4CCOCC4)c3s2)CC1 [Pictilisib] (partner 1 µM), the relative viability ([1]; first compound 0.08 µM) is reported as 0.481, the relative viability ([1]; first compound 0.253 µM) is reported as 0.755 and the relative viability ([1]; first compound 0.8 µM) is reported as 0.452. The relative viability ([1]; first compound 2.53 µM) was 0.595, the relative viability ([1]; first compound 8 µM) was 0.568 and the relative viability ([2]; first compound 0.08 µM) was 0.48. It also gave a relative viability ([2]; first compound 0.253 µM) of 0.977, a relative viability ([2]; first compound 0.8 µM) of 0.755 and a relative viability ([2]; first compound 2.53 µM) of 0.748. For the same molecule, the relative viability ([2]; first compound 8 µM) was 0.668, the relative viability ([3]; first compound 0.08 µM) was 0.457 and the relative viability ([3]; first compound 0.253 µM) was 0.456. It also gave a relative viability ([3]; first compound 0.8 µM) of 0.362, a relative viability ([3]; first compound 2.53 µM) of 0.405 and a relative viability ([3]; first compound 8 µM) of 0.344. The relative viability ([4]; first compound 0.08 µM) was 0.533, the relative viability ([4]; first compound 0.253 µM) was 0.472 and the relative viability ([4]; first compound 0.8 µM) was 0.513. The relative viability ([4]; first compound 2.53 µM) was 0.426, the relative viability ([4]; first compound 8 µM) was 0.509 and the relative viability ([5]; first compound 0.08 µM) was 0.308. For the same molecule, the relative viability ([5]; first compound 0.253 µM) was 0.354, the relative viability ([5]; first compound 0.8 µM) was 0.306 and the relative viability ([5]; first compound 2.53 µM) was 0.273. The relative viability ([5]; first compound 8 µM) was 0.374, the relative viability ([6]; first compound 0.253 µM) was 0.442 and the relative viability ([6]; first compound 2.53 µM) was 0.285. It also gave a relative viability ([6]; first compound 8 µM) of 0.528, a relative viability ([7]; first compound 0.08 µM) of 0.512 and a relative viability ([7]; first compound 0.253 µM) of 0.553. For the same molecule, the relative viability ([7]; first compound 0.8 µM) was 0.419, the relative viability ([7]; first compound 2.53 µM) was 0.585 and the relative viability ([7]; first compound 8 µM) was 0.471. For the same molecule, the relative viability ([8]; first compound 0.08 µM) was 0.34, the relative viability ([8]; first compound 0.253 µM) was 0.419 and the relative viability ([8]; first compound 0.8 µM) was 0.357. The relative viability ([8]; first compound 2.53 µM) was 0.371, the relative viability ([8]; first compound 8 µM) was 0.403 and the relative viability ([9]; first compound 0.253 µM) was 0.257. For the same molecule, the relative viability ([9]; first compound 0.8 µM) was 0.223, the relative viability ([9]; first compound 2.53 µM) was 0.277 and the relative viability ([9]; first compound 8 µM) was 0.238. The relative viability ([10]; first compound 0.08 µM) was 0.352, the relative viability ([10]; first compound 0.253 µM) was 0.394 and the relative viability ([10]; first compound 0.8 µM) was 0.404. It also gave a relative viability ([10]; first compound 2.53 µM) of 0.35, a relative viability ([10]; first compound 8 µM) of 0.446 and a relative viability ([11]; first compound 0.08 µM) of 0.369. The relative viability ([11]; first compound 0.253 µM) was 0.489, the relative viability ([11]; first compound 0.8 µM) was 0.481 and the relative viability ([11]; first compound 2.53 µM) was 0.431. For the same molecule, the relative viability ([11]; first compound 8 µM) was 0.444, the relative viability ([12]; first compound 0.08 µM) was 0.821 and the relative viability ([12]; first compound 0.253 µM) was 1.01. The relative viability ([12]; first compound 0.8 µM) was 0.904, the relative viability ([12]; first compound 2.53 µM) was 0.828 and the relative viability ([12]; first compound 8 µM) was 0.976. The relative viability ([13]; first compound 0.08 µM) was 0.373, the relative viability ([13]; first compound 0.253 µM) was 0.396 and the relative viability ([13]; first compound 0.8 µM) was 0.338. The relative viability ([13]; first compound 2.53 µM) was 0.407, the relative viability ([13]; first compound 8 µM) was 0.474 and the relative viability ([14]; first compound 0.08 µM) was 0.63. The relative viability ([14]; first compound 0.253 µM) was 0.531, the relative viability ([14]; first compound 0.8 µM) was 0.505 and the relative viability ([14]; first compound 2.53 µM) was 0.489. The relative viability ([14]; first compound 8 µM) was 0.616, the relative viability ([15]; first compound 0.08 µM) was 0.633 and the relative viability ([15]; first compound 0.253 µM) was 0.952. For the same molecule, the relative viability ([15]; first compound 0.8 µM) was 0.567, the relative viability ([15]; first compound 2.53 µM) was 0.733 and the relative viability ([15]; first compound 8 µM) was 0.476. The relative viability ([16]; first compound 0.08 µM) was 0.512, the relative viability ([16]; first compound 0.253 µM) was 0.857 and the relative viability ([16]; first compound 0.8 µM) was 0.546. It also gave a relative viability ([16]; first compound 2.53 µM) of 0.59, a relative viability ([16]; first compound 8 µM) of 0.509 and a relative viability ([17]; first compound 0.08 µM) of 0.777. It also gave a relative viability ([17]; first compound 0.253 µM) of 0.791, a relative viability ([17]; first compound 0.8 µM) of 0.896 and a relative viability ([17]; first compound 2.53 µM) of 0.747. The relative viability ([17]; first compound 8 µM) was 0.849, the relative viability ([18]; first compound 0.08 µM) was 0.289 and the relative viability ([18]; first compound 0.253 µM) was 0.452. For the same molecule, the relative viability ([18]; first compound 0.8 µM) was 0.321, the relative viability ([18]; first compound 2.53 µM) was 0.384 and the relative viability ([18]; first compound 8 µM) was 0.545. For the same molecule, the relative viability ([19]; first compound 0.08 µM) was 0.43, the relative viability ([19]; first compound 0.253 µM) was 0.608 and the relative viability ([19]; first compound 0.8 µM) was 0.622. The relative viability ([19]; first compound 2.53 µM) was 0.571, the relative viability ([19]; first compound 8 µM) was 0.521 and the relative viability ([20]; first compound 0.08 µM) was 0.649. The relative viability ([20]; first compound 0.253 µM) was 0.64, the relative viability ([20]; first compound 0.8 µM) was 0.633 and the relative viability ([20]; first compound 2.53 µM) was 0.738. For the same molecule, the relative viability ([20]; first compound 8 µM) was 0.661.
